Source: patent US11512069B2, “TLR7/8 antagonists and uses thereof” (Merck Patent GmbH, priority 2016, dated 2022)

target: T1, TLR7 (Homo sapiens, UniProt Q9NYK1); assay: HEK Cell Assay (TLR7/NFKb HEK reporter cells, Steady-Glo); format: cell-based; settings: compound 30 min, then R*48 agonist 5 hours, Steady-Glo readout, read-out: Potency
T1 construct: expressed in transfected cells; host or cells: HEK cells carrying TLR7 and an NF-kB reporter read with Steady-Glo
T1 sequence (Q9NYK1 27-1049): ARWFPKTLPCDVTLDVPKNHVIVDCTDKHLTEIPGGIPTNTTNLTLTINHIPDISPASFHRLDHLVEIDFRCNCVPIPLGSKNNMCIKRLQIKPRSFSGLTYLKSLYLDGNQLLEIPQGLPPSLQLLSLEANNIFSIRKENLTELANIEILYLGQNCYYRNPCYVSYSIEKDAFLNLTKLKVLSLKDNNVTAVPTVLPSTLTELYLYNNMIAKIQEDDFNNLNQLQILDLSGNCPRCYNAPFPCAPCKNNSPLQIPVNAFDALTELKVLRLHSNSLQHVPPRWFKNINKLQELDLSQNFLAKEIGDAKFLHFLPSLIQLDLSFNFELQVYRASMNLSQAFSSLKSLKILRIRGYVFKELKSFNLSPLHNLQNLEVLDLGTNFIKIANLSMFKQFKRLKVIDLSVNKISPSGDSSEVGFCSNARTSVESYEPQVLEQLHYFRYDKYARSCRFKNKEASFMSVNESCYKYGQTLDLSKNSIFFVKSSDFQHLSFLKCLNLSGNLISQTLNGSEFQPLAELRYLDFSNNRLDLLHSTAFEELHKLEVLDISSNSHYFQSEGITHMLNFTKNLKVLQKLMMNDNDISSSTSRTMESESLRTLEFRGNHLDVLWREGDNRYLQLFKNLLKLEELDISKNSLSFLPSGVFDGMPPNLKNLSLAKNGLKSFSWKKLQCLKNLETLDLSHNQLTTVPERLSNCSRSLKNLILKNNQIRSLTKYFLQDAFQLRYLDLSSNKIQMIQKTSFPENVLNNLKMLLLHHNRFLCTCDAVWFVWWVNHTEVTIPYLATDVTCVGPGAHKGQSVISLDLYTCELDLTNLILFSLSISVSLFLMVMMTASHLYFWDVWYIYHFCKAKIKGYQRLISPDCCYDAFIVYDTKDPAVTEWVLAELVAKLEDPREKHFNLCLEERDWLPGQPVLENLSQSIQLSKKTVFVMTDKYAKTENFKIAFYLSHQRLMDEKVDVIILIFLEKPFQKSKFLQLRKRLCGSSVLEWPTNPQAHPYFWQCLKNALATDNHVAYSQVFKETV
Procedure: Example 32: HEK Cell Assay
Into 384 CulturePlates (Corning 3707) was placed 5000 c/w of TLR7/NFKb HEK cells in 30 uL DMEM without Phenil red (gibco #31053) and 10% i.a. FCS and 2 mM L-ZGLutamin. The cells were incubated for 24 h at 37 degrees Celsius, 10% carbon dioxide and 90% relative humidity, 3 uL of controls, standards, and compounds were dispensed to wells, incubated for 30 min then 3 uL of R*48 agonist in 20 mM Hepes was added. After incubation for 5 hours, it was allowed to stand at room temperature for 15 min, 10 uL of Steady-Glo substrate reagent was added and shake assay plate for 5 min at 1500 rpm. The assay plate was allowed to sit for 30 min at room temperature and then read plate on EnVision.

IC50, > 20 µM:
C[C@@H]1C[C@H](c2ccc(C#N)c3ncccc23)CN(C(=O)c2ccc(N3CCC3)nc2)C1 (relative stereo) [Compound 36, cis-5-[1-(6-Azetidin-1-yl-pyridine-3-carbonyl)-5-methyl-piperidin-3-yl]-quinoline-8-carbonitrile]
C[C@@H]1C[C@H](c2ccc(C#N)c3ncccc23)CN(C(=O)C2CCC(F)(F)CC2)C1 (relative stereo) [Compound 37, cis-5-[1-(4,4-Difluoro-cyclohexanecarbonyl)-5-methyl-piperidin-3-yl]-quinoline-8-carbonitrile]
C[C@@H]1C[C@H](c2ccc(C#N)c3ncccc23)CN(C(=O)c2cc3n(n2)CCC3)C1 (relative stereo) [Compound 38, cis-5-[1-(5,6-Dihydro-4H-pyrrolo[1,2-b]pyrazole-2-carbonyl)-5-methyl-piperidin-3-yl]-quinoline-8-carbonitrile]
C[C@H]1C[C@H](c2ccc(C#N)c3ncccc23)CN(CC(N)=O)C1 (relative stereo) [Compound 66]
C[C@@H]1C[C@H](c2ccc(C#N)c3ncccc23)CN(CC(N)=O)C1 (relative stereo) [Compound 67]
C[C@@H]1C[C@H](c2ccc(C#N)c3ncccc23)CN(CC(=O)Nc2cnn(C)c2)C1 (relative stereo) [Compound 76, cis-2-[3-(8-Cyano-quinolin-5-yl)-5-methyl-piperidin-1-yl]-N-(1-methyl-1H-pyrazol-4-yl)-acetamide]
C[C@@H]1C[C@@H](c2ccc(C#N)c3ncccc23)CN(CC(=O)Nc2cnn(C)c2)C1 (relative stereo) [Compound 77, trans-2-[3-(8-Cyano-quinolin-5-yl)-5-methyl-piperidin-1-yl]-N-(1-methyl-1H-pyrazol-4-yl)-acetamide]
C[C@@H]1C[C@H](c2ccc(C#N)c3ncccc23)CN(C(=O)Cc2cnn(C)c2)C1 (relative stereo) [Compound 107, cis-5-Methyl-1-[2-(1-methyl-1H-pyrazol-4-yl)-acetyl]-piperidin-3-yl-quinoline-8-carbonitrile]

IC50, < 1 µM:
C[C@@H]1C[C@H](c2ccc(C#N)c3ncccc23)CN(C(=O)CC2[C@H]3CN(C)C[C@@H]23)C1 (relative stereo) [Compound 79]
COCCN[C@@H]1C[C@H](C)C[C@H](c2ccc(C#N)c3nccnc23)C1 (relative stereo) [Compound 133, 8-[(cis-1,3,5)-3-[(2-methoxyethyl)amino]-5-methylcyclohexyl]quinoxaline-5-carbonitrile]

IC50, 1 to 20 µM:
C[C@@H]1C[C@H](c2ccc(C#N)c3ncccc23)CN(C(=O)CN2CCC2)C1 (relative stereo) [Compound 33]
C[C@@H]1C[C@H](c2ccc(C#N)c3ncccc23)CN(C(=O)CC2CN(C)C2)C1 (relative stereo) [Compound 34, cis-1-Methyl-1-[2-(1-methyl-azetidin-3-yl)-acetyl]-piperidin-3-yl-quinoline-8-carbonitrile]
C[C@@H]1C[C@H](c2ccc(C#N)c3ncccc23)CN(C(=O)C2CCN(C)CC2)C1 (relative stereo) [Compound 39, cis-5-[5-Methyl-1-(1-methyl-piperidine-4-carbonyl)-piperidin-3-yl]-quinoline-8-carbonitrile]
C[C@@H]1C[C@H](c2ccc(C(F)(F)F)c3ncccc23)CN(C(=O)NC2CC2)C1 (relative stereo) [Compound 40, cis-Cyclopropyl-3-methyl-5-[8-(trifluoromethyl)-5-quinolyl] piperidine-1-carboxamide]
C[C@@H]1C[C@@H](c2ccc(C(F)(F)F)c3ncccc23)CN(C(=O)NC2CC2)C1 (relative stereo) [Compound 41, trans-Cyclopropyl-3-methyl-5-[8-(trifluoromethyl)-5-quinolyl] piperidine-1-carboxamide]
C[C@@H]1C[C@H](c2ccc(C#N)c3ncccc23)CN(C(=O)CC2(N)CC2)C1 (relative stereo) [Compound 62, Cis-1-[2-(1-Amino-cyclopropyl)-acetyl]-5-methyl-piperidin-3-yl-quinoline-8-carbonitrile]
C[C@H]1C[C@H](c2ccc(C#N)c3ncccc23)CN(C(=O)CC2(N)CC2)C1 (relative stereo) [Compound 63, Trans-1-[2-(1-Amino-cyclopropyl)-acetyl]-5-methyl-piperidin-3-yl-quinoline-8-carbonitrile]
C[C@@H]1C[C@H](c2ccc(C#N)c3ncccc23)CN(CC(=O)NC2CCN(C)CC2)C1 (relative stereo) [Compound 68, cis-2-[3-(8-Cyano-quinolin-5-yl)-5-methyl-piperidin-1-yl]-N-(1-methyl-piperidin-4-yl)-acetamide]
C[C@@H]1C[C@@H](c2ccc(C#N)c3ncccc23)CN(CC(=O)NC2CCN(C)CC2)C1 (relative stereo) [Compound 69, trans-2-[3-(8-Cyano-quinolin-5-yl)-5-methyl-piperidin-1-yl]-N-(1-methyl-piperidin-4-yl)-acetamide]
C[C@@H]1C[C@H](c2ccc(C#N)c3ncccc23)CN(CC(=O)N2CCC(N(C)C)CC2)C1 (relative stereo) [Compound 70, cis-5-(1-{2-[4-(dimethylamino)piperidin-1-yl]-2-oxoethyl}-5-methylpiperidin-3-yl) quinoline-8-carbonitrile]
C[C@@H]1C[C@@H](c2ccc(C#N)c3ncccc23)CN(CC(=O)N2CCC(N(C)C)CC2)C1 (relative stereo) [Compound 71, trans-5-(1-{2-[4-(dimethylamino)piperidin-1-yl]-2-oxoethyl}-5-methylpiperidin-3-yl) quinoline-8-carbonitrile]
C[C@@H]1C[C@H](c2ccc(C#N)c3ncccc23)CN(CC(=O)NCCN2CCN(C)CC2)C1 (relative stereo) [Compound 72, cis-2-[3-(8-Cyano-quinolin-5-yl)-5-methyl-piperidin-1-yl]-N-[2-(4-methyl-piperazin-1-yl)-ethyl]-acetamide]
C[C@@H]1C[C@@H](c2ccc(C#N)c3ncccc23)CN(CC(=O)NCCN2CCN(C)CC2)C1 (relative stereo) [Compound 73, trans-2-[3-(8-Cyano-quinolin-5-yl)-5-methyl-piperidin-1-yl]-N-[2-(4-methyl-piperazin-1-yl)-ethyl]-acetamide]
C[C@@H]1C[C@H](c2ccc(C#N)c3ncccc23)CN(CC(=O)NCC2CCN(C)CC2)C1 (relative stereo) [Compound 74, cis-2-[3-(8-Cyano-quinolin-5-yl)-5-methyl-piperidin-1-yl]-N-(1-methyl-piperidin-4-ylmethyl)-acetamide]
C[C@@H]1C[C@@H](c2ccc(C#N)c3ncccc23)CN(CC(=O)NCC2CCN(C)CC2)C1 (relative stereo) [Compound 75, trans-2-[3-(8-Cyano-quinolin-5-yl)-5-methyl-piperidin-1-yl]-N-(1-methyl-piperidin-4-ylmethyl)-acetamide]
C[C@@H]1C[C@H](c2ccc(C#N)c3ncccc23)CN(C(=O)c2cnn(C)c2)C1 (relative stereo) [Compound 108, cis-5-Methyl-1-(1-methyl-H-pyrazole-4-carbonyl)-piperidin-3-yl-quinoline-8-carbonitrile]
